Measured values: patent US20040138156A1, “Therapeutic regulation of deoxyribonuclease-1-like-3 activity” (priority 2002, published 2004)

Tested on: bone marrow macrophages
Assay: Induction of D1L3 in cultured bone marrow macrophages (anti-D1L3 immunoblot, RDA, zymogram)
Type: cell-based, C57BL mice
Settings: 100 U/ml for the interferons
Experimental: FIG. 22. Normal and induced expression of D1L3 in murine macrophages. […] In anti-D1L3 blots of cell lysates, the protein is seen both as a ^˜34 kDa uncleaved molecule and a ^˜28 kDa cleaved molecule. […] Cells were plated on serum-coated tissue culture dishes and incubated overnight, the next morning, non-adherent cells (N) were rinsed vigorously with PBS 1×, and both adeherent (A) and non-adherent cells (N) from C57BL, NZB/W, BXSB, and MRL were lysed and immunoblotted with anti-D1L3. While the ^˜34 kDa size band consistent with uncleaved D1L3 is present in both adherent and non-adherent, the cleaved form (^˜28 kDa) is present almost exclusively in the adherent population of presumed macrophages. Also noticable are the higher levels of expression of D1L3 in the 3 latter lupus strains. Panel B: Untreated bone marrow macrophages from NZB/WF1 mice have a much higher baseline expression expression of D1L3 than C57BL macrophages.
Induction is present in macrophages from both strain though the absolute level of induction appears greater in C57BL than in the SLE-prone NZB/W F1 strain. NZB/W protein loads in Ifn-γ-negative lane is slightly underloaded relative to actin. Panel C: Bone marrow macrophages isolated from bone marrow (via adherence) from MRL and C57BL mice, and cultured for 2 days in vitro, were induced by Ifn-γ. […] No induction of D1L3, RDA-DNASE, or zymographic DNASE activity is evident upon tratement with 100 U/ml of Ifn-alpha. […] Panel D: Bone marrow macrophages from C57BL and MRL mice cultured for 7 days in the presence of GM-CSF were induced with Ifn-γ, again showing the higher baseline levels of 28 kDa enzyme in the lupus prone strain, and in C57BL showing induction of levels aftern Ifn-γ. […]
Assays of Murine Cells. […] Splenocytes were counted using a hemochromocytometer, and plated at 2 million cells/ml on plastic 6-well Falcon tissue culture dishes (Becton Dickinson) in RPMI with 10% FCS. […]

Molecule | induction of D1L3 in macrophages
lipopolysaccaride [LPS] | inducible
CCCCCCCCCCCCCC(=O)O[C@@H]1[C@@H](C)[C@@]2(O)[C@@H](C=C(CO)C[C@]3(O)C(=O)C(C)=C[C@@H]23)[C@@H]2C(C)(C)[C@]12OC(C)=O [PMA, phorbol myristate acetate] | inducible
